Test results published in publication PMC13162264, “Chemoproteomic Elucidation of β‑Lactam Drug Targets in Mycobacterium abscessus” (ACS Infectious Diseases, 2026).
≈ marks a conversion by molar mass, not a printed value. Read-outs that look alike come from different tables or passages of the source.

Assays:
[1] = system: Mab 19977 (ATCC 19977, subsp. abscessus); set-up: method as in not given; details: supplemented Middlebrook 7H9 broth, reported values, ref not given; cited from earlier work
[2] = system: M9510 (clinical strain, subsp. massiliense); set-up: method as in not given; details: supplemented Middlebrook 7H9 broth, reported values, ref not given; cited from earlier work
[3] = system: β-lactam targets in Mab 19977 whole-cell lysates; test: β-lactam competition of Mero-sCy5 labeling in whole-cell lysates; format: binding, Mycobacterium abscessus subsp. abscessus; details: Mab 19977 lysate; drug 1 mM, then Mero-sCy5 5 μM
[4] = system: β-lactam targets in M9510 whole-cell lysates; test: as above; format: binding, Mycobacterium abscessus subsp. massiliense; details: drug 1 mM, then Mero-sCy5 5 μM
[5] = system: O=C(Cc1cccs1)N[C@@H]1C(=O)N2C(C(=O)O)=C(/C=C/c3ccc([N+](=O)[O-])cc3[N+](=O)[O-])CS[C@H]12; test: purified protein, by the assay type; details: other: nitrocefin hydrolysis by MAB_3998 (20 μM), 37 °C
Experimental: (B) Steady-state kinetic parameters for nitrocefin hydrolysis by Ldt4, PbpB, and MAB_3998.
To further characterize our findings, we determined the steady-state kinetic parameters for the hydrolysis of nitrocefin by Ldt4, PbpB, and MAB_3998 (Figure B).
Purified enzyme (Ldt4, 5 μM; PbpB, 20 μM; MAB_3998, 20 μM) or buffer alone was
in a 96-well microplate in 50 mM Tris-Cl pH 8.0 at 4 °C, 150 mM NaCl. Nitrocefin
hydrolysis was monitored at 486 nm on a microplate reader (30 sec intervals, 1-2 hr
duration, 37 °C). For Ldt4 and PbpB, initial rates were calculated from 240-570 sec of
the reaction. For MAB_3998, the initial rates were calculated from 120-1200 sec of the
reaction. The velocity against substrate concentration was fit to a nonlinear regression
assuming Michaelis-Menton steady-state kinetics in GraphPad Prism software.
Calculations were done using technical triplicates from two (MAB_3998) or three (Ldt4,
PbpB) separate experiments. Error is reported as standard deviation.

Ldt4 [6] = molecular target: T1, Ldt4 (Mycobacteroides abscessus, UniProt B1MKW1); test: β-lactam IC50 by drug treatment then Bocillin FL labeling, in-gel fluorescence; format: binding, Mycobacterium abscessus
PbpB = PbpB (Mycobacteroides abscessus, UniProt B1MP31); test: as above; format: binding
DacB2 [7] = molecular target: T2, DacB2 (Mycobacteroides abscessus, UniProt B1MDJ1); test: as above; format: binding, Mycobacterium abscessus
T2 sequence (B1MDJ1 entry or part of it): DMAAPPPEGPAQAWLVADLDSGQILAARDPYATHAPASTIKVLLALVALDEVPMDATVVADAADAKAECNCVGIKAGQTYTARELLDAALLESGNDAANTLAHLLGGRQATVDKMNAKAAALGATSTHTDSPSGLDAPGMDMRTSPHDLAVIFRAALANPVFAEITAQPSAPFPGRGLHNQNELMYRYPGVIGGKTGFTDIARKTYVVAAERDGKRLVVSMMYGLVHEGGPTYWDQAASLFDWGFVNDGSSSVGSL

MAB_4800 = MAB_4800 (Mycobacteroides abscessus, UniProt B1MM83); test: as above; format: binding
Sequence of MAB_4800 (B1MM83 entry or part of it): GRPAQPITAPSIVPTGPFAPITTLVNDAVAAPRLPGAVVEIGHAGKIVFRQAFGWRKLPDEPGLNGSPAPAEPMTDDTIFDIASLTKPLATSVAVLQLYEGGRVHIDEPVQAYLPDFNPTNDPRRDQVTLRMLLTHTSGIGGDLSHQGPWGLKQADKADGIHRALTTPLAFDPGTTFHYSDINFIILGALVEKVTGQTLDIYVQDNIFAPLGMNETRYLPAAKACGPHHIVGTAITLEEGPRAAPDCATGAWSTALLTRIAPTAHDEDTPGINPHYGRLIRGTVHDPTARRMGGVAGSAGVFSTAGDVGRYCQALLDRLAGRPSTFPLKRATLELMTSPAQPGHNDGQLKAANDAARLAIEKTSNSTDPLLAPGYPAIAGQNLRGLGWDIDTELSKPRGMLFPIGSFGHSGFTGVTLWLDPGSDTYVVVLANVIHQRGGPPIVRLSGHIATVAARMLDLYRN

MAB_0330 [8] = molecular target: T3, MAB_0330 (Mycobacteroides abscessus, UniProt B1MFM9); test: as above; format: binding
T3 sequence (B1MFM9 entry or part of it): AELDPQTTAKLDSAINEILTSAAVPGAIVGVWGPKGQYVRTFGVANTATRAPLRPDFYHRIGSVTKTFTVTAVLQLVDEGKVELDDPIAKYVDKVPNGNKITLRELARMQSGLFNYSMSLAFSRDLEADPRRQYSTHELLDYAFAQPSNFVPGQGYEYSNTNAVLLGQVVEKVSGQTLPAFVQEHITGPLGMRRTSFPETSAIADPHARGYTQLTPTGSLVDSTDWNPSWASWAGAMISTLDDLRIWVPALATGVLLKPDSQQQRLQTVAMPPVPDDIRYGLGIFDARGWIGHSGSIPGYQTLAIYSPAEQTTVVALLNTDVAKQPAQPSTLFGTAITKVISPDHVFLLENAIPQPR
Experimental: Adjustment of image brightness and contrast and band intensity quantification was
performed with Fiji. Statistical comparison of mean band intensities between no
treatment and drug-treated enzymes was done using one-way ANOVA with Tukey
multiple comparison test in GraphPad Prism software.
We determined the inhibitory concentration 50 (IC50) of imipenem and cefoxitin for
PbpB, Ldt4, DacB2, and MAB_4800. We measured the IC50 by drug-treatment followed
by Bocillin FL labeling using the method described by Carlson23. Purified enzyme (0.5
μM) was treated with a range of inhibitor concentrations (.01 – 5000 µM) or buffer only
(NT) in 50 mM Tris-Cl (pH 8.0 at 4 °C), 150 mM NaCl for 30 min at 37 °C. Samples
were then incubated with 10 µM Bocillin FL for 30 min at 37 °C. Reactions were
stopped by addition of 1X TCEP SDS-PAGE loading dye and heating (5 min, 75 °C).
Technical duplicates were loaded and resolved on the same gel to standardize
background. Gels were destained of free probe overnight (30% methanol, 10% acetic
acid in water) and scanned using the Cy2 laser/emission filter on an Amersham
Typhoon imager. The experiment was repeated twice for each enzyme.
Mean band intensities were measured in ImageJ by drawing a box tightly around the
band. The inhibitor concentration versus mean band intensity was plotted and fit to a […]
GraphPad Prism software. Final values were calculated by averaging the IC50 across […]

Ldt4 [9] = molecular target: T1, Ldt4; test: β-lactam competition of ABP labeling, recombinant enzyme; format: binding, Mycobacterium abscessus; details: drug 500 μM, 30 min 37 °C, then 10 μM Mero-sCy5 or Bocillin FL
MAB_0330 [10] = molecular target: T3, MAB_0330; test: as above; format: binding; details: drug 500 μM, 30 min 37 °C, then 10 μM Mero-sCy5 or Bocillin FL
[11] = system: M. abscessus subsp. abscessus (n = 1344 isolates); set-up: method as in Hunkins et al.; details: ref Hunkins et al.; cited from earlier work
[12] = system: M. abscessus subsp. massiliense (n = 754 isolates); set-up: method as in Hunkins et al.; details: ref Hunkins et al.; cited from earlier work
[13] = human, in vivo; cited from earlier work
[14] = system: Mab 19977 whole-cell lysates (REP and CS); details: Mab 19977 lysates, 10 μM probe
Experimental: (§1) (D) Mero-sCy5- and (E) Bocillin FL-labeled 19977 and M9510 lysates (30 μg) were resolved by SDS-PAGE (12 μg/lane) and scanned for fluorescent signal.
(§2) Normalized lysates were ABP-labeled, resolved by SDS-PAGE, and gels were scanned for fluorescent signal (Figure S3).
(§3) In-Gel Analysis of Mero-sCy5 and Bocillin FL Binding
(§4) Normalized total protein lysates (30 μg) were labeled with 10 μM Meropenem-sulfoCy5 6
(§5) (Mero-sCy5) or 10 μM Bocillin FL (Invitrogen) for 60 min at RT, protected from light.
(§6) Labeling reactions were quenched by the addition of 1x TCEP loading dye (5X stock:
(§7) glycerol). Samples were heated to 75 °C for 10 min and resolved (12 μg/lane) via SDS-
(§8) PAGE (Criterion Bis-Tris gels, XT-MES running buffer, Bio-Rad). Gels were de-stained
(§9) of free probe overnight (30% methanol, 10% acetic acid in water) and scanned using
(§10) Amersham Typhoon imager (Cytiva). Adjustment of image brightness and contrast and
(§11) band intensity quantification were performed with Fiji7. Total protein staining was done
(§12) using Coomassie R-250 (Thermo Scientific, CAS 6104-58-1) (Figure S3).

[15] = system: M9510 whole-cell lysates (REP and CS); details: 10 μM probe
Experimental: as §1, §2, §3, §4, §5, §6, §7, §8, §9, §10, §11, §12

DacB2 [16] = molecular target: T2, DacB2; test: β-lactam competition of ABP labeling, recombinant enzyme; details: drug 500 μM, 30 min 37 °C, then 10 μM Mero-sCy5 or Bocillin FL
Experimental: Purified protein was incubated with drug or buffer only before labeling with either Mero-sCy5 or Bocillin FL. Samples were then resolved by SDS-PAGE and imaged for quantification.
Purified protein (3 μg) was combined with drug (500 μM) or buffer (no treatment, NT) in 10 mM HEPES pH 7.5 (30 min, 37 °C). Samples were then labeled with 10 μM ABP (Mero-sCy5 or Bocillin FL) for 1 h at 37 °C. Labeled protein was resolved via SDS-PAGE (1 μg/lane) and fluorescent signal was quantified as mean intensity of three independent replicates. Error is reported as standard deviation and statistical significance was determined by one-way ANOVA with Tukey multiple comparisons test.
β-lactam Competition of ABP Labeling
Purified enzymes (3 μg) were incubated with 500 μM imipenem monohydrate (IPM,
MedChemExpress, CAS 74431-23-5), cefoxitin sodium salt (FOX, Sigma-Aldrich, CAS
buffer only in 10 mM HEPES (pH 7.5 ) for 30 min at 37 °C. Samples were then
incubated with 10 μM Mero-sCy5 or Bocillin FL for 60 min at 37 °C. Samples were
denatured with 1X TCEP SDS-PAGE loading dye by heating (10 min, 75 °C). Protein (1
μg/lane) was resolved via SDS-PAGE on 10% Bis-Tris gels (Bio-Rad, 1X XT MES
running buffer). Triplicate samples of each enzyme were prepared independently and

[17] = system: M9510 (clinical strain, subsp. massiliense); test: Reported MIC in supplemented Middlebrook 7H9 broth; format: cell-based, Mycobacterium abscessus subsp. massiliense; details: from past characterization of M9510, ref not given
recombinant BlaMab = test: β-lactamase activity, nitrocefin hydrolysis; format: biochemical, Mycobacterium abscessus; details: data not shown
Ldt2 = system: Ldt2; set-up: method as in not given; details: nitrocefin hydrolysis by Mab Ldt2, previously found, ref not given, cited from earlier work
[18] = molecular target: Ldt4, PbpB, DacB2, and MAB_4800; test: β-lactam IC50, range over the four enzymes; format: binding, Mycobacterium abscessus
[19] = substrate: O=C(Cc1cccs1)N[C@@H]1C(=O)N2C(C(=O)O)=C(/C=C/c3ccc([N+](=O)[O-])cc3[N+](=O)[O-])CS[C@H]12; test: Steady-state kinetics of nitrocefin hydrolysis; format: biochemical, Mycobacterium abscessus; details: 37 °C
[20] = 0.5 μM enzyme, drug 30 min 37 °C, then 10 µM Bocillin FL
[21] = IC50 Ldt4, 0.5 μM enzyme, drug 30 min 37 °C, then 10 µM Bocillin FL
[22] = other: nitrocefin hydrolysis by Ldt4 (5 μM)
[23] = other: nitrocefin hydrolysis by PbpB (20 μM)

## CC(C)(O/N=C(\C(=O)N[C@@H]1C(=O)N2C(C(=O)[O-])=C(C[n+]3ccccc3)CS[C@H]12)c1csc(N)n1)C(=O)O [ceftazidime]
[1]
  MIC: > 256 µg/mL
[2]
  MIC: > 256 µg/mL

## CC1(C)S[C@@H]2[C@H](NC(=O)Cc3ccccc3)C(=O)N2[C@H]1C(=O)O [PEN, penicillin G]
[3]
  inhibition of Mero-sCy5 labeling of targets in lysate: largely ineffective inhibitors
[4]
  inhibition of Mero-sCy5 labeling of targets in lysate: largely ineffective inhibitors

## CC1(C)S[C@@H]2[C@H](NC(=O)[C@H](N)c3ccc(O)cc3)C(=O)N2[C@H]1C(=O)O [amoxicillin]
[1]
  MIC: > 256 µg/mL
[2]
  MIC: > 256 µg/mL

## MAB_3998 (Mycobacteroides abscessus ATCC 19977)
[5]
  Km: 150 ± 9 µM
  kcat: 0.0022 ± 6.1e^-5 s^-1
  kcat/Km: 14 M⁻¹ s⁻¹

## CO[C@@]1(NC(=O)Cc2cccs2)C(=O)N2C(C(=O)O)=C(COC(N)=O)CS[C@@H]21 [FOX, cefoxitin]
Ldt4 [6]; [20]
  IC50 Ldt4: did not inhibit
Ldt4 [6]; [21]
  IC50: > 1000 µM
PbpB; [20]
  IC50: 12 ± 4 µM
DacB2 [7]
  IC50: 0.4 ± 0.9 µM
DacB2 [7]; IC50 comparison FOX vs IPM
  fold more potent inhibition of DacB2 than IPM: 5 fold
MAB_4800; [20]
  IC50: > 1000 µM
  IC50 MAB_4800: did not inhibit
MAB_0330 [8]; fit not accurate, error unacceptably large (± 180 μM IPM, ± 240 μM FOX)
  IC50: 270 µM
Ldt4 [9]
  inhibition of fluorescent ABP binding to Ldt4: did not inhibit
MAB_0330 [10]
  inhibition of fluorescent ABP binding to MAB_0330: weakly inhibited
[3]
  inhibition of Mero-sCy5 labeling of targets in lysate: inhibited many targets but not all
[4]
  inhibition of Mero-sCy5 labeling of targets in lysate: inhibited many targets but not all
[1]
  MIC: 64 µg/mL (≈ 150 µM)
[2]
  MIC: 64 µg/mL (≈ 150 µM)
[11]
  MIC90: 64 µg/mL (≈ 150 µM)
[12]
  MIC90: 64 µg/mL (≈ 150 µM)
[13]
  fCss,avg (median unbound average steady-state plasma concentration): 4.0 µg/mL

## CO[C@H]1/C=C/O[C@@]2(C)Oc3c(C)c(O)c4c(c3C2=O)C2=NC3(CCN(CC(C)C)CC3)NC2=C(NC(=O)/C(C)=C\C=C\[C@H](C)[C@H](O)[C@@H](C)[C@@H](O)[C@@H](C)[C@H](OC(C)=O)[C@@H]1C)C4=O [rifabutin]
[1]
  susceptibility indicated by reported MIC: susceptible
[2]
  susceptibility indicated by reported MIC: susceptible

## C[C@@H](O)[C@H]1C(=O)N2C(C(=O)O)=C(S[C@H]3C[C@@H](C(=O)N(C)C)N(C(=O)CCCCC[N+]4=C(/C=C/C=C/C=C5/N(C)c6ccc(S(=O)(=O)O)cc6C5(C)C)C(C)(C)c5cc(S(=O)(=O)[O-])ccc54)C3)[C@H](C)[C@H]12 [Mero-sCy5]
[14]
  targets labeled in gel-resolved lysate: labeled more targets than Bocillin FL
[15]
  targets labeled in gel-resolved lysate: labeled more targets than Bocillin FL

## NC(=O)[C@@H]1CC[C@@H]2CN1C(=O)N2OS(=O)(=O)O [AVI, avibactam]
Ldt4 [9]
  inhibition of fluorescent ABP binding to Ldt4: enhancement of Ldt4 binding by Mero-sCy5
DacB2 [16]
  inhibition of fluorescent ABP binding to DacB2: intermediate inhibition

## C=CC1=C(C(=O)O)N2C(=O)[C@@H](NC(=O)/C(=N\O)c3csc(N)n3)[C@H]2SC1 [cefdinir]
[1]
  MIC: 128 µg/mL (≈ 324 µM)
[2]
  MIC: 128 µg/mL (≈ 324 µM)

## C[C@H]1[C@H](NC(=O)/C(=N\OC(C)(C)C(=O)O)c2csc(N)n2)C(=O)N1S(=O)(=O)O [AZT, aztreonam]
[3]
  inhibition of Mero-sCy5 labeling of targets in lysate: largely ineffective inhibitors
[4]
  inhibition of Mero-sCy5 labeling of targets in lysate: largely ineffective inhibitors

## C[C@@H](O)[C@H]1C(=O)N2C(C(=O)O)=C(S[C@@H]3CN[C@H](CNS(N)(=O)=O)C3)[C@H](C)[C@H]12 [doripenem]
[17]
  increased MIC in M9510 relative to 19977: 4 fold
[1]
  MIC: 16 µg/mL (≈ 38 µM)
[2]
  MIC: 64 µg/mL (≈ 152 µM)

## O=C(Cc1cccs1)N[C@@H]1C(=O)N2C(C(=O)O)=C(/C=C/c3ccc([N+](=O)[O-])cc3[N+](=O)[O-])CS[C@H]12 [nitrocefin]
Recombinant BlaMab
  nitrocefin hydrolysis by BlaMab: complete nitrocefin hydrolysis near instantaneously
Ldt2
  maximal rate of hydrolysis: 0.33 µM/s
Ldt2; read-out: affinity for nitrocefin (Km)
  Km: 328 µM

## NCC[C@H](O)C(=O)N[C@@H]1C[C@H](N)[C@@H](O[C@H]2O[C@H](CN)[C@@H](O)[C@H](O)[C@H]2O)[C@H](O)[C@H]1O[C@H]1O[C@H](CO)[C@@H](O)[C@H](N)[C@H]1O [amikacin]
[1]
  susceptibility indicated by reported MIC: susceptible
[2]
  susceptibility indicated by reported MIC: susceptible

## C[C@@H](O)[C@H]1C(=O)N2C(C(=O)O)=C(SCCN=CN)C[C@H]12 [IPM, imipenem]
[17]
  increased MIC in M9510 relative to 19977: 3 fold
Ldt4 [6]; IC50 (best-fit value, example analysis Figure S8), Ldt4 with IPM, one experiment, 95% CI 1.796 to 11.10, R squared 0.8570
  IC50: 5.18 µM
Ldt4 [6]; [21]
  IC50: 4 ± 2 µM
Ldt4 [6]; Ldt4 with IPM, one experiment
  HillSlope (best-fit value, example analysis Figure S8): -1.416
PbpB
  IC50: 4 ± 2 µM
PbpB; IC50 comparison IPM vs FOX
  fold more potent inhibition of PbpB than FOX: 3 fold
DacB2 [7]
  IC50: 2 ± 1 µM
MAB_4800
  IC50: 7 ± 3 µM
MAB_0330 [8]
  IC50: 170 µM
[18]
  IC50 for the four enzymes, in mass units: 0.5 to 2 µg/mL
[3]
  inhibition of Mero-sCy5 labeling of targets in lysate: abolished ABP labeling
[4]
  inhibition of Mero-sCy5 labeling of targets in lysate: abolished ABP labeling
[1]
  MIC: 8 µg/mL (≈ 26.7 µM)
[2]
  MIC: 24 µg/mL (≈ 80.2 µM)
[11]
  MIC90: 16 µg/mL (≈ 53.4 µM)
[12]
  MIC90: 16 µg/mL (≈ 53.4 µM)
[13]
  fCss,avg (median unbound average steady-state plasma concentration): 12.2 µg/mL

## C[C@@H](O)[C@H]1C(=O)N2C(C(=O)O)=C(S[C@@H]3CN[C@H](C(=O)N(C)C)C3)[C@H](C)[C@H]12 [meropenem]
[3]
  inhibition of Mero-sCy5 labeling of targets in lysate: abolished ABP labeling
[4]
  inhibition of Mero-sCy5 labeling of targets in lysate: abolished ABP labeling

B1: Ldt4 (Mycobacteroides abscessus ATCC 19977) (protein)
chain: GDVPPLPVGLLKNSPNNGDVVGVAQPITIVFAAPVTDKKAAEAAVKITTSKPAPGYFYWYTDQQLRWKPTQFWPANTDVNVNAGGTKWSFKVGDAFVSTVDDATYTMTVTRNGVVERTMPISMGKHDKKHETKNGTYYVSEKFQKMVMDSSTYGVPVNSAEGYKLDVYWATRLSNSGIFVHAAPWSVGAQGKSDTSHGCINVNTDNATWFFNQSHPGDPVIVKNSPGGPYKDYDGYDDWQRF
[19]; [22]
  Km: 65 ± 7 µM
  kcat: 0.0042 ± 2.0e^-4 s^-1
  kcat/Km: 65 M⁻¹ s⁻¹

B2: PbpB (Mycobacteroides abscessus ATCC 19977) (protein)
chain: GPRAAGLRAEASGQLKVTETEKALRGTIVDRAGNKLAFTIEARALTFQPKKIREQLNKAWEKSQEILKDPGKSDADKAAAAKIRSVEPERRLQDIANGVSAKLGNKPDAKSLLKKIRSDDTFAYLARSVDPGIAAQITKEFPEVGAERQDIRQYPGGSLAANIVGSIDWEGYGLLGLEDSLDSALAGKDGSLTYDRGSDGAVIPGSYRDRHDAVNGSTVELTLDNDIQFYVQQQVQQAKDLSEARSVSAVVLDSKTGEVLAMANDNTFDPSQNLGKQGNREMGNLSVSSPFEPGSVNKVITASAVIENDLSNPDEVLQVPGSINMGGVTVRDAWPHGTVPFTTTGVFGKSSNVGTLMLAQRVGPERFMDLVDKFGLGQRTGVGLPGESAGIVPPIEQWSGSTFSNLPIGQGLSMTLLQMAGMYQAIANDGVRIPPRIVKSITAPDGSRKEEPRPEPVQVVNAGTARTVRNMLRAVLQPDARQIQNGTGASGAVDGYQLSGKTGTAQQINPACGCYFDDVYWITFAGIATTDDPRYVIGIEMNAPKRGSDGSPHMTAAPLFHNIASWLMRRENVPLSPDPGPPLILQAT
[19]; [23]
  Km: 220 ± 27 µM
  kcat: 0.00075 ± 3.1e^-5 s^-1
  kcat/Km: 3.4 M⁻¹ s⁻¹
